# According to article PMC10480161, “Identification of potent and selective N-myristoyltransferase inhibitors of Plasmodium vivax liver stage hypnozoites and schizonts” (Nature Communications, 2023):
# “And” between values parts separate entries of the source, which are not always exact repeats. Equal values may be shown once.
# Key:
# [1] = HepG2 cytotoxicity assay (Live/Dead staining); settings: human, HepG2 cells
# Outline: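 Live/dead fluorescence microscopy (calcein-AM and ethidium homodimer, 1 µM each) read at 72 h post-treatment. Compounds dosed at 1 to 20 µM on HepG2 cells, with washing and fresh compound every 24 h.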
# [2] = test system: P. vivax schizonts; test: P. vivax liver stage assay, schizonts; type: cell-based, Plasmodium vivax; settings: for Number of liverstage Schizonts per well: 20 µM, 8 dpi; for IC50: Plasmodium vivax, Hepatocyte, 120 h, primary human hepatocytes, treatment day 5 to 8 post-infection, isolates 2 and 3
# Outline: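 Compound exposure ran days 5–8 post-infection with daily refeeding, dose-response up to 20 µM, MMV390048 at 20 µM as positive control. Host cells were single-lot primary human hepatocytes infected with freshly dissected P. vivax sporozoites; fixed cultures stained with anti-PvUIS4 and DAPI, schizonts quantified by confocal microscopy.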
# [3] = test system: P. vivax hypnozoites; test: P. vivax liver stage assay, hypnozoites; type: cell-based, Plasmodium vivax; settings: for Hypnozoites per well: Isolate 2, replicate wells (Figure 6d); for Number of liverstage hypnozoites per well: 20 µM, 8 dpi; for IC50: Plasmodium vivax, Hepatocyte, 120 h, primary human hepatocytes, treatment day 5 to 8 post-infection, isolate 2
# Experimental: Finally, we evaluated the NMT-binding compounds against non-developing P. vivax hypnozoites. […] (Fig. 6A). […] We, therefore, evaluated the impact of all tested compounds on P. vivax hypnozoites using these two isolates.
# Plasmodium vivax liver stage assays were performed as described previously. Cryopreserved primary human hepatocytes (Cat No. F00995-P) and hepatocyte culture medium (HCM) (InVitroGroTM CP Medium) were obtained from Bioreclamation IVT, Inc., (Baltimore, MD, USA). Briefly, we seeded 384-well plates with primary hepatocytes from a single donor lot at a density of 25,000 cells per well. We then infected the hepatocytes with 14,000 freshly hand-dissected sporozoites per well. Cells were exposed to the compounds at indicated concentrations from day 5 post-infection. We used Pi4K inhibitor MMV390048, at 20 µM, as a positive control to eliminate P. vivax liver schizonts. We then proceeded to feed cultures every day, replacing the compounds until day 8 post-infection. Cells were fixed with 4% PFA, permeabilized with 1% Triton X-100, blocked with 2% BSA, and stained with DAPI and PvUIS4 antibodies to detect schizonts and hypnozoites forms by confocal microscopy. For antibody dilutions, PvUIS4 (kind gift from Dr. Noah Sather, Seattle Children’s Research Institute) was diluted 1:250 and the secondary antibody was anti-mouse AlexaFluor-594 (Cat # A-11005; RRID: AB_2534073) diluted 1:1000. DAPI was diluted 1:2000. The images were processed, analyzed and outlier cells were removed using IMARIS (Bitplane Inc.) image analysis software.
# [4] = biological target: PvNMT (Plasmodium vivax, UniProt A5K1A2); test: NMT activity assay (CPM detection of free CoA), PvNMT; settings: for IC50: PvNMT IC50, mean of two or more determinations; for SI: enzyme selectivity, HsNMT IC50/PvNMT IC50
# PvNMT, sequence (A5K1A2 entry or part of it): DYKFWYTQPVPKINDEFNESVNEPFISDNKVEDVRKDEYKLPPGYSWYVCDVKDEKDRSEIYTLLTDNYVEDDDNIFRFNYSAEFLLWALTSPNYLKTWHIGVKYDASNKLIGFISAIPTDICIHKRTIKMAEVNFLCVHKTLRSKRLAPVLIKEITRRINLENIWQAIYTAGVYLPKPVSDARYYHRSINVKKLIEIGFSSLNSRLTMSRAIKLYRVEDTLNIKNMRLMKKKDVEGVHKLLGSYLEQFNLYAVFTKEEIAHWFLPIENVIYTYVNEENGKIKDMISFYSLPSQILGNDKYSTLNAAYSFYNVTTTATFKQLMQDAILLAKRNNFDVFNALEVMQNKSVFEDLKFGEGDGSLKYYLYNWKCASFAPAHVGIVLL
# [5] = isolate 1, technical replicates (Fig. 5b)
# [6] = isolate 2, technical replicates (Fig. 5b)
# [7] = isolate 3, technical replicates (Fig. 5b)
# [8] = isolate 1, technical replicates (Fig. 6C)
# [9] = isolate 2, technical replicates (Fig. 6C)
# [10] = isolate 3, technical replicates (Fig. 6C)
Structure (SMILES),IC50 at 48 h [1] [µM],"Number of liverstage Schizonts per well [2, 5]","Number of liverstage Schizonts per well [2, 6]","Number of liverstage Schizonts per well [2, 7]","Schizonts per well ([2]; Isolate 2, 1.25 uM)","Schizonts per well ([2]; Isolate 2, 2.5 uM)","Schizonts per well ([2]; Isolate 2, 5 uM)","Schizonts per well ([2]; Isolate 3, 1.25 uM)","Schizonts per well ([2]; Isolate 3, 2.5 uM)","Schizonts per well ([2]; Isolate 3, 5 uM)","Schizonts per well ([2]; Isolate 3, 10 uM)","Schizonts per well ([2]; Isolate 3, 20 uM (Fig. 5c-d))",IC50 [2] [µM],"schizonts (fold change to DMSO) mean diff ([2]; isolate 1, 20 µM)","schizonts (fold change to DMSO) mean diff ([2]; isolate 2, 20 µM)","schizonts (fold change to DMSO) mean diff ([2]; isolate 3, 20 µM)",Hypnozoites per well ([3]; 1.25 uM),Hypnozoites per well ([3]; 2.5 uM),Hypnozoites per well ([3]; 5 uM),Hypnozoites per well ([3]; 10 uM),other results
Cc1nn(C)c(C)c1CCOc1ccccc1-c1cccc(N2CCNCC2)c1 [Compound 12d],> 20,1 per well (2×) and 0 per well,2 per well and 0 per well and 1 per well,2 per well and 1 per well,12 per well and 13 per well,11 per well and 9 per well and 15 per well,9 per well and 7 per well and 11 per well,12 per well,6 per well and 11 per well,7 per well and 6 per well,5 per well and 4 per well,2 per well and 1 per well,3.3 to 4.3,0.967,0.9434,0.8977,11 and 8 and 9,7 (2×) and 8,5 (2×) and 7,3 (2×) and 2,"Schizonts per well ([2]; Isolate 2, 10 uM): 8 per well and 5 per well; Number of liverstage hypnozoites per well [3, 8]: 1 per well (2×) and 0 per well; Number of liverstage hypnozoites per well [3, 9]: 3 per well and 0 per well and 1 per well; Number of liverstage hypnozoites per well [3, 10]: 0 per well; Hypnozoites per well ([3]; 20 uM): 3 and 0 and 1; IC50 [3]: 4.7 µM; hypnozoites (fold change to DMSO) mean diff ([3]; isolate 1, 20 µM): 0.939; hypnozoites (fold change to DMSO) mean diff ([3]; isolate 2, 20 µM): 0.862; IC50 [4]: 0.0485 µM; SI [4]: 153.4"
Cc1nn(C)c(C)c1CCOc1cc(F)ccc1-c1cccc(N2CCNCC2)c1 [Compound 12f],> 20,0 per well,1 per well and 0 per well (2×),3 per well and 2 per well,12 per well and 13 per well and 17 per well,10 per well and 9 per well and 15 per well,8 per well and 9 per well and 11 per well,11 per well,10 per well and 12 per well,7 per well and 5 per well,3 per well and 5 per well,3 per well and 2 per well,3.3 to 4.3,1.000,0.9811,0.8295,4 (2×) and 2,3,2 and 3 (2×),1,"Number of liverstage hypnozoites per well [3, 8]: 1 per well (2×) and 0 per well; Number of liverstage hypnozoites per well [3, 9]: 1 per well (2×) and 0 per well; Number of liverstage hypnozoites per well [3, 10]: 0 per well; Hypnozoites per well ([3]; 20 uM): 1 (2×) and 0; IC50 [3]: 1.5 µM; hypnozoites (fold change to DMSO) mean diff ([3]; isolate 1, 20 µM): 0.939; hypnozoites (fold change to DMSO) mean diff ([3]; isolate 2, 20 µM): 0.931; IC50 [4]: 0.0159 µM; SI [4]: 43.9"
c1cncc(CCOc2cccnc2-c2cccc(N3CCNCC3)c2)c1 [Compound 12g],> 20,0 per well,3 per well and 4 per well and 6 per well,3 per well,10 per well and 11 per well and 19 per well,11 per well and 12 per well and 16 per well,6 per well and 8 per well and 11 per well,13 per well and 11 per well,7 per well and 6 per well,8 per well and 4 per well,5 per well,3 per well,2.2 to 3.1,1.000,0.7547,0.7955,5 and 0 and 3,3 and 4 and 0,1 and 2 and 0,1 and 0 (2×),"Schizonts per well ([2]; Isolate 2, 20 uM (Fig. 5c-d)): 3 per well and 4 per well and 6 per well; Number of liverstage hypnozoites per well [3, 8]: 1 per well and 0 per well (2×); Number of liverstage hypnozoites per well [3, 9]: 1 per well and 0 per well (2×); Number of liverstage hypnozoites per well [3, 10]: 0 per well; Hypnozoites per well ([3]; 20 uM): 1 and 0 (2×); IC50 [3]: 1.2 µM; hypnozoites (fold change to DMSO) mean diff ([3]; isolate 1, 20 µM): 0.785; hypnozoites (fold change to DMSO) mean diff ([3]; isolate 2, 20 µM): 0.966; IC50 [4]: 0.104 µM; SI [4]: 152.8"
c1cncc(CCOc2ccccc2-c2ccnc(N3CCNCC3)c2)c1 [Compound 12j],> 20,0 per well (2×) and 1 per well,2 per well and 0 per well and 1 per well,4 per well and 3 per well,15 per well and 18 per well and 14 per well,13 per well and 11 per well,11 per well and 12 per well and 13 per well,11 per well and 19 per well,12 per well and 16 per well,8 per well and 11 per well,6 per well and 9 per well,4 per well and 3 per well,4.9 to 6,0.983,0.9434,0.7614,9 and 6 and 12,13 and 12 and 8,19 and 3 and 13,13 and 10,"Number of liverstage hypnozoites per well [3, 8]: 0 per well (2×) and 3 per well; Number of liverstage hypnozoites per well [3, 9]: 0 per well (2×) and 3 per well; Number of liverstage hypnozoites per well [3, 10]: 0 per well; Hypnozoites per well ([3]; 20 uM): 0 (2×) and 3; IC50 [3]: 12 µM; hypnozoites (fold change to DMSO) mean diff ([3]; isolate 1, 20 µM): 0.985; hypnozoites (fold change to DMSO) mean diff ([3]; isolate 2, 20 µM): 0.897; IC50 [4]: 0.124 µM; SI [4]: 220.6"
